Test results published in patent US9206219B2, “17-hydroxy-17-pentafluorethyl-estra-4,9(10)-dien-11-aryl derivatives, methods for the production thereof and the use thereof for treating diseases” (Bayer Intellectual Property GmbH, priority 2009, dated 2015).

What was measured:
[1] = molecular target: T1, human progesterone receptor A (Homo sapiens, UniProt P06401); assay: Progesterone receptor-antagonistic action in stably transfected SK-N-MC cells, MMTV-LUC reporter (PR-A); type: cell-based; conditions: antagonistic potency vs 0.1 nmol/l promegestone, 24 hours
T1 construct: expressed in transfected cells; host or cells: SK-N-MC human neuroblastoma cells, stably transfected with pRChPR-A-neo and pMMTV-LUC
T1 sequence (P06401 1-769 isoform P06401-2): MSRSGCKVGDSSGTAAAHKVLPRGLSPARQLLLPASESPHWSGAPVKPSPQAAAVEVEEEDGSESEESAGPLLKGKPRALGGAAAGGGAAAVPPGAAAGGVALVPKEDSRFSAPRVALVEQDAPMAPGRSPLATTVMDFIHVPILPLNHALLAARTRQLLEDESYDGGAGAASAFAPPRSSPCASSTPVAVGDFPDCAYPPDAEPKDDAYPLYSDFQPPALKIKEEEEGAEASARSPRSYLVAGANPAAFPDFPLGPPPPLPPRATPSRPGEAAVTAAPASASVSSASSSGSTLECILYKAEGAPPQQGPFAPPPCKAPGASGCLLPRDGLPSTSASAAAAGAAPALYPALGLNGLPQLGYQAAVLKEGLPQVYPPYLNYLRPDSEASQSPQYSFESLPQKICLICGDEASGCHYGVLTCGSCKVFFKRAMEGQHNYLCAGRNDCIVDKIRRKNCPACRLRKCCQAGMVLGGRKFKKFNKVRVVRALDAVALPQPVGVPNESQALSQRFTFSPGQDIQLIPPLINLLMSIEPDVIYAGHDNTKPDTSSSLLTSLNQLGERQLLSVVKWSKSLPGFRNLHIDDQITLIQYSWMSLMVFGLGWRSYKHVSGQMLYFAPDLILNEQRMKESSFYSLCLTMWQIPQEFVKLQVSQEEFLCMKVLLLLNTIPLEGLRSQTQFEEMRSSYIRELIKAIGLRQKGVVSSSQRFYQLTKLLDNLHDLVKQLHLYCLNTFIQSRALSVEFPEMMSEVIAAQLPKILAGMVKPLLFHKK
Description: (§1) Progesterone Receptor-Antagonistic Action in Stable Transfectants of Human Neuroblastoma Cells (SK-N-MC Cells) with the Human Progesterone A or Progesterone B Receptor and an MN-LUC Reporter Construct
(§2) SK-N-MC cells (human neuroblastoma cells) which have been stably transfected with plasmids expressing the human progesterone receptor B (pRChPR-B-neo) or the human progesterone receptor A (pRChPR-A-neo) and a reporter construct (pMMTV-LUC) were incubated for 24 hours either in the absence (negative control) or in the presence of ascending amounts of the particular test compound (0.01 nmol/l, 0.1 nmol/l, 1 nmol/l, 10 nmol/l, 100 nmol/l and […]), in order to determine the agonistic efficacy. As a positive control of the reporter gene induction, the cells were treated with the synthetic gestagen promegestone (0.01 nmol/l, 0.1 nmol/l, 1 nmol/l, 10 nmol/l, 100 nmol/l and […]). To determine the antagonistic activity, the cells were treated with 0.1 nmol/l promegestone and additionally with ascending amounts of the particular test compound (0.01 nmol/l, 0.1 nmol/l, 1 nmol/l, 10 nmol/l, 100 nmol/l and […]). The activity of the reporter gene LUC (LUC=luciferase) was determined in the cell lysates and measured as RLU (relative light units). All measurements are reported as % efficacy and as EC50 and IC50 concentrations.

[2] = molecular target: T2, human progesterone receptor B (Homo sapiens, UniProt P06401); assay: Progesterone receptor-antagonistic action in stably transfected SK-N-MC cells, MMTV-LUC reporter (PR-B); type: cell-based; conditions: antagonistic potency vs 0.1 nmol/l promegestone, 24 hours
T2 construct: expressed in transfected cells; host or cells: SK-N-MC human neuroblastoma cells, stably transfected with pRChPR-B-neo and pMMTV-LUC
T2 sequence (P06401 1-933): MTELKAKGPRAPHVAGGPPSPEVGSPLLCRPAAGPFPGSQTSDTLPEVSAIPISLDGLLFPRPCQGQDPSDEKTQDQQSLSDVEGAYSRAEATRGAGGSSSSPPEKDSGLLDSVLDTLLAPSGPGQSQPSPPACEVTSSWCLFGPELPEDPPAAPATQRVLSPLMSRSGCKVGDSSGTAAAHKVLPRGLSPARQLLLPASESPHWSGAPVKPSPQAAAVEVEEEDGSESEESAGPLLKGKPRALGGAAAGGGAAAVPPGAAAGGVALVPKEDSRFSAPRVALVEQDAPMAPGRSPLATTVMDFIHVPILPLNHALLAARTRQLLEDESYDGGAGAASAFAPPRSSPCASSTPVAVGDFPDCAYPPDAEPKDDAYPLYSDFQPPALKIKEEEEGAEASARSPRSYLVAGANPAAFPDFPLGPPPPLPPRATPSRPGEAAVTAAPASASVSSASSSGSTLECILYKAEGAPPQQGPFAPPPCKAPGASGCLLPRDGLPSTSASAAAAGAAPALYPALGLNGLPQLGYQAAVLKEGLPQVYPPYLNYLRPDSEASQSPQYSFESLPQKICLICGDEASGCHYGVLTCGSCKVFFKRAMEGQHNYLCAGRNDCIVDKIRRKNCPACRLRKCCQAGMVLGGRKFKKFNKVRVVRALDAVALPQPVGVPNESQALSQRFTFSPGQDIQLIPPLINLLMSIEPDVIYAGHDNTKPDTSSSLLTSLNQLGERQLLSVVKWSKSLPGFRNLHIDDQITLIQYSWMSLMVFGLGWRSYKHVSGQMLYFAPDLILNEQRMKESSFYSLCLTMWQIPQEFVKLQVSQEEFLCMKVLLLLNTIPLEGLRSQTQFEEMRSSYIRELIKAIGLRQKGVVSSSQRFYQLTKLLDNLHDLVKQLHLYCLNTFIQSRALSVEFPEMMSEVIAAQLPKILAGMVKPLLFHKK
Description: as §1, §2

Structure (SMILES) | IC50 [1] [nM] | IC50 [2] [nM]
CC(O)c1cccc([C@H]2C[C@@]3(C)C(CC[C@@]3(O)C(F)(F)C(F)(F)F)C3CCC4=CC(=O)CCC4=C32)c1 (mixture of isomers) [Example 11, (8S,11R,13S,14S,17S)-17-hydroxy-11-[3-((RS)-1-hydroxyethyl)phenyl]-13-methyl-17-pentafluoroethyl-1,2,6,7,8,11,12,13,14,15,16,17-dodecahydrocyclopenta[a]phenanthren-3-one] | 2 | 3
C[C@]12C[C@H](c3ccc(C4CC4)cc3)C3=C4CCC(=O)C=C4CC[C@H]3[C@@H]1CC[C@@]2(O)C(F)(F)C(F)(F)F [Example 1, (8S,11R,13S,14S,17S)-11-(4-cyclopropylphenyl)-17-hydroxy-13-methyl-17-pentafluoroethyl-1,2,6,7,8,11,12,13,14,15,16,17-dodecahydrocyclopenta[a]phenanthren-3-one] | < 0.001 | 0.004
CC(=O)c1cccc([C@H]2C[C@@]3(C)[C@@H](CC[C@@]3(O)C(F)(F)C(F)(F)F)[C@@H]3CCC4=CC(=O)CCC4=C32)c1 [Example 10, (8S,11R,13S,14S,17S)-11-(3-acetylphenyl)-17-hydroxy-13-methyl-17-pentafluoroethyl-1,2,6,7,8,11,12,13,14,15,16,17-dodecahydrocyclopenta[a]phenanthren-3-one] | 5 | 3
C[C@]12C[C@H](c3cccc(C4CC4)c3)C3=C4CCC(=O)C=C4CC[C@H]3[C@@H]1CC[C@@]2(O)C(F)(F)C(F)(F)F [Example 12, (8S,11R,13S,14S,17S)-11-(3-cyclopropylphenyl)-17-hydroxy-13-methyl-17-pentafluoroethyl-1,2,6,7,8,11,12,13,14,15,16,17-dodecahydrocyclopenta[a]phenanthren-3-one] | 4 | 9
C[C@]12C[C@H](c3cccc(CCO)c3)C3=C4CCC(=O)C=C4CC[C@H]3[C@@H]1CC[C@@]2(O)C(F)(F)C(F)(F)F [Example 14, (8S,11R,13S,14S,17S)-17-hydroxy-11-[3-(2-hydroxyethyl)phenyl]-13-methyl-17-pentafluoroethyl-1,2,6,7,8,11,12,13,14,15,16,17-dodecahydrocyclopenta[a]phenanthren-3-one] | 1 | 1
C=CCNC(=O)NCc1ccc([C@H]2C[C@@]3(C)[C@@H](CC[C@@]3(O)C(F)(F)C(F)(F)F)[C@@H]3CCC4=CC(=O)CCC4=C32)cc1 [Example 18, 1-allyl-3-[4-((8S,11R,13S,14S,17S)-17-hydroxy-13-methyl-3-oxo-17-pentafluoroethyl-2,3,6,7,8,11,12,13,14,15,16,17-dodecahydro-1H-cyclopenta[a]phenanthren-11-yl)benzyl]urea] | 0.8 | 0.8
CCOC(=O)CNC(=O)NCc1ccc([C@H]2C[C@@]3(C)[C@@H](CC[C@@]3(O)C(F)(F)C(F)(F)F)[C@@H]3CCC4=CC(=O)CCC4=C32)cc1 [Example 21, {3-[4-((8S,11R,13S,14S,17S)-17-hydroxy-13-methyl-3-oxo-17-pentafluoroethyl-2,3,6,7,8,11,12,13,14,15,16,17-dodecahydro-1H-cyclopenta[a]phenanthren-11-yl)benzyl]ureido}acetic acid ethyl ester] | 1.2 | 2.4
CCOC(=O)CCNC(=O)NCc1ccc([C@H]2C[C@@]3(C)[C@@H](CC[C@@]3(O)C(F)(F)C(F)(F)F)[C@@H]3CCC4=CC(=O)CCC4=C32)cc1 [Example 22, 3-{3-[4-((8S,11R,13S,14S,17S)-17-hydroxy-13-methyl-3-oxo-17-pentafluoroethyl-2,3,6,7,8,11,12,13,14,15,16,17-dodecahydro-1H-cyclopenta[a]phenanthren-11-yl)benzyl]ureido}propionic acid ethyl ester] | 0.5 | 0.6

Continued by falling IC50 [1], values first:

IC50 [1] [nM] | IC50 [2] [nM] | Structure (SMILES)
4 | 7 | CC1(c2cccc([C@H]3C[C@@]4(C)[C@@H](CC[C@@]4(O)C(F)(F)C(F)(F)F)[C@@H]4CCC5=CC(=O)CCC5=C43)c2)CC1 [Example 13, (8S,11R,13S,14S,17S)-17-hydroxy-13-methyl-11-[3-(1-methylcyclopropyl)phenyl]-17-pentafluoroethyl-1,2,6,7,8,11,12,13,14,15,16,17-dodecahydrocyclopenta[a]phenanthren-3-one]
0.8 | 1 | C[C@]12C[C@H](c3ccc(C(CO)CO)cc3)C3=C4CCC(=O)C=C4CC[C@H]3[C@@H]1CC[C@@]2(O)C(F)(F)C(F)(F)F [Example 16, (8S,11R,13S,14S,17S)-17-hydroxy-11-[4-(2-hydroxy-1-hydroxymethylethyl)phenyl]-13-methyl-17-pentafluoroethyl-1,2,6,7,8,11,12,13,14,15,16,17-dodecahydrocyclopenta[a]phenanthren-3-one]
0.7 | 1 | CC(C)(C)NC(=O)NCc1ccc([C@H]2C[C@@]3(C)[C@@H](CC[C@@]3(O)C(F)(F)C(F)(F)F)[C@@H]3CCC4=CC(=O)CCC4=C32)cc1 [Example 20, 1-tert-butyl-3-[4-((8S,11R,13S,14S,17S)-17-hydroxy-13-methyl-3-oxo-17-pentafluoroethyl-2,3,6,7,8,11,12,13,14,15,16,17-dodecahydro-1H-cyclopenta[a]phenanthren-11-yl)benzyl]urea]
0.6 | 0.7 | CC(C)NC(=O)NCc1ccc([C@H]2C[C@@]3(C)[C@@H](CC[C@@]3(O)C(F)(F)C(F)(F)F)[C@@H]3CCC4=CC(=O)CCC4=C32)cc1 [Example 19, 1-isopropyl-3-[4-((8S,11R,13S,14S,17S)-17-hydroxy-13-methyl-3-oxo-17-pentafluoroethyl-2,3,6,7,8,11,12,13,14,15,16,17-dodecahydro-1H-cyclopenta[a]phenanthren-11-yl)benzyl]urea]
0.3 | 0.6 | Cc1ccc(NC(=O)NCc2ccc([C@H]3C[C@@]4(C)[C@@H](CC[C@@]4(O)C(F)(F)C(F)(F)F)[C@@H]4CCC5=CC(=O)CCC5=C43)cc2)cc1 [Example 25, 1-[4-((8S,11R,13S,14S,17S)-17-hydroxy-13-methyl-3-oxo-17-pentafluoroethyl-2,3,6,7,8,11,12,13,14,15,16,17-dodecahydro-1H-cyclopenta[a]phenanthren-11-yl)benzyl]-3-p-tolylurea]
0.1 | 0.1 | C[C@]12C[C@H](c3ccc([C@@H]4CC4CO)cc3)C3=C4CCC(=O)C=C4CCC3C1CC[C@@]2(O)C(F)(F)C(F)(F)F (single isomer, unassigned) [Example 6A]
